According to ChEMBL document CHEMBL1201862, “PubChem BioAssay data set” (2004):
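Tested at 5 concentrations; 48 h exposure; 96-well plates; endpoints linearly interpolated, else capped at highest concentration. At the GI50, growth is halved.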 Active and inactive are the calls of the source. Rule as the data show it: active = GI50 up to about 1.1 µM and inactive = higher.

Assays:
Test in all cases: DTP human tumour cell line panel, 48 h
HOP-62 = test system: HOP-62
BT-549 = test system: BT-549
NCI-H23 = test system: NCI-H23
MCF7 = test system: MCF7
SK-MEL-5 = test system: SK-MEL-5
HT-29 = test system: HT-29
SF-268 = test system: SF-268
Hs-578T = test system: Hs-578T
TK-10 = test system: TK-10
UACC-62 = test system: UACC-62
786-0 = test system: 786-0
HCT-15 = test system: HCT-15
OVCAR-4 = test system: OVCAR-4
LOX IMVI = test system: LOX IMVI
RPMI-8226 = test system: RPMI-8226
SN12C = test system: SN12C
UACC-257 = test system: UACC-257
HL-60 = test system: HL-60
SK-MEL-28 = test system: SK-MEL-28
SNB-75 = test system: SNB-75
M14 = test system: M14
OVCAR-5 = test system: OVCAR-5
OVCAR-3 = test system: OVCAR-3
NCI-H522 = test system: NCI-H522
KM12 = test system: KM12
NCI/ADR-RES = test system: NCI/ADR-RES
CAKI-1 = test system: CAKI-1
SK-OV-3 = test system: SK-OV-3
DU-145 = test system: DU-145
PC-3 = test system: PC-3
Malme-3M = test system: Malme-3M
NCI-H226 = test system: NCI-H226
EKVX = test system: EKVX
SR = test system: SR
U-251 = test system: U-251
MOLT-4 = test system: MOLT-4
RXF 393 = test system: RXF 393
SNB-19 = test system: SNB-19
CCRF-CEM = test system: CCRF-CEM
SW-620 = test system: SW-620
UO-31 = test system: UO-31
T47D = test system: T47D
HCT-116 = test system: HCT-116
SF-295 = test system: SF-295
MDA-N = test system: MDA-N
COLO 205 = test system: COLO 205
MDA-MB-435 = test system: MDA-MB-435
A549 = test system: A549
SK-MEL-2 = test system: SK-MEL-2
OVCAR-8 = test system: OVCAR-8
SF-539 = test system: SF-539
ACHN = test system: ACHN
IGROV-1 = test system: IGROV-1
NCI-H460 = test system: NCI-H460
A498 = test system: A498
K562 = test system: K562
MDA-MB-231 = test system: MDA-MB-231
HOP-92 = test system: HOP-92
HCC 2998 = test system: HCC 2998

O=C1N/C(=N\C2CCCCC2)C2(CCN(CCCC3(c4ccc(F)cc4)OCCO3)CC2)N1c1ccccc1
GI50 (HOP-62): 17500 nM (inactive)
GI50 (BT-549): 4610 nM (inactive)
GI50 (NCI-H23): 17900 nM (inactive)
GI50 (MCF7): 21200 nM (inactive)
GI50 (SK-MEL-5): 15000 nM (inactive)
GI50 (HT-29): 16600 nM (inactive)
GI50 (SF-268): 21500 nM (inactive)
GI50 (Hs-578T): 14400 nM (inactive)
GI50 (TK-10): 15700 nM (inactive)
GI50 (UACC-62): > 10000 nM (inactive)
GI50 (786-0): 16600 nM (inactive)
GI50 (HCT-15): 18100 nM
GI50 (OVCAR-4): 18500 nM (inactive)
GI50 (LOX IMVI): 22800 nM (inactive)
GI50 (RPMI-8226): 23000 nM (inactive)
GI50 (SN12C): 20400 nM (inactive)
GI50 (UACC-257): 15100 nM (inactive)
GI50 (HL-60): 11700 nM (inactive)
GI50 (SK-MEL-28): 18600 nM (inactive)
GI50 (SNB-75): 14300 nM (inactive)
GI50 (M14): 19400 nM (inactive)
GI50 (OVCAR-5): 16700 nM (inactive)
GI50 (OVCAR-3): 11800 nM (inactive)
GI50 (NCI-H522): 14900 nM (inactive)
GI50 (KM12): 18000 nM (inactive)
GI50 (NCI/ADR-RES): 24300 nM (inactive)
GI50 (CAKI-1): 22800 nM (inactive)
GI50 (SK-OV-3): 21000 nM (inactive)
GI50 (DU-145): 17000 nM (inactive)
GI50 (PC-3): 19300 nM (inactive)
GI50 (Malme-3M): 16700 nM (inactive)
GI50 (NCI-H226): 23100 nM (inactive)
GI50 (EKVX): 16800 nM (inactive)
GI50 (SR): 13900 nM (inactive)
GI50 (U-251): 15900 nM (inactive)
GI50 (MOLT-4): 15100 nM (inactive)
GI50 (RXF 393): 17300 nM (inactive)
GI50 (SNB-19): 18500 nM (inactive)
GI50 (CCRF-CEM): 29000 nM (inactive)
GI50 (SW-620): 21200 nM (inactive)
GI50 (UO-31): 12600 nM (inactive)
GI50 (T47D): 17000 nM (inactive)
GI50 (HCT-116): 12200 nM (inactive)
GI50 (SF-295): 19900 nM (inactive)
GI50 (MDA-N): 15400 nM (inactive)
GI50 (COLO 205): 18500 nM (inactive)
GI50 (MDA-MB-435): 19100 nM (inactive)
GI50 (A549): 21400 nM (inactive)
GI50 (SK-MEL-2): 16000 nM (inactive)
GI50 (OVCAR-8): 24800 nM (inactive)
GI50 (SF-539): 17000 nM (inactive)
GI50 (ACHN): 14800 nM (inactive)

CC(=O)Nc1ccc2c3c(cc(O)c2c1)N(C(=O)CCCC(=O)N1CC(CCl)c2c1cc(O)c1cc(NC(C)=O)ccc21)CC3CCl (stereo not given)
GI50 (HOP-62): < 10 nM (active)
GI50 (BT-549): 11 nM (active)
GI50 (NCI-H23): < 10 nM (active)
GI50 (IGROV-1): 10.2 nM (active)
GI50 (MCF7): < 10 nM (active)
GI50 (SK-MEL-5): 10.8 nM (active)
GI50 (HT-29): 12.5 nM (active)
GI50 (SF-268): < 10 nM (active)
GI50 (Hs-578T): 28.5 nM (active)
GI50 (TK-10): 22 nM (active)
GI50 (UACC-62): < 10 nM (active)
GI50 (786-0): < 10 nM (active)
GI50 (HCT-15): 77.3 nM
GI50 (OVCAR-4): 23.8 nM (active)
GI50 (LOX IMVI): < 10 nM (active)
GI50 (RPMI-8226): 10.9 nM (active)
GI50 (SN12C): < 10 nM (active)
GI50 (UACC-257): 11.4 nM (active)
GI50 (NCI-H460): < 10 nM (active)
GI50 (HL-60): < 10 nM (active)
GI50 (SK-MEL-28): 20.1 nM (active)
GI50 (SNB-75): < 10 nM (active)
GI50 (M14): < 10 nM (active)
GI50 (OVCAR-5): 19.8 nM (active)
GI50 (OVCAR-3): 11.1 nM (active)
GI50 (NCI-H522): < 10 nM (active)
GI50 (KM12): 13.2 nM (active)
GI50 (NCI/ADR-RES): 82.8 nM (active)
GI50 (CAKI-1): < 10 nM (active)
GI50 (SK-OV-3): < 11 nM (active)
GI50 (DU-145): < 10 nM (active)
GI50 (PC-3): 12.9 nM (active)
GI50 (A498): < 10 nM (active)
GI50 (Malme-3M): 10 nM (active)
GI50 (NCI-H226): < 10 nM (active)
GI50 (EKVX): 42.3 nM (active)
GI50 (SR): < 10 nM (active)
GI50 (U-251): < 10 nM (active)
GI50 (MOLT-4): < 10 nM (active)
GI50 (RXF 393): < 10 nM (active)
GI50 (SNB-19): < 10 nM (active)
GI50 (CCRF-CEM): < 10 nM (active)
GI50 (SW-620): 39.2 nM (active)
GI50 (UO-31): < 16.6 nM (active)
GI50 (T47D): < 10 nM (active)
GI50 (K562): < 10 nM (active)
GI50 (HCT-116): < 10 nM (active)
GI50 (SF-295): < 10 nM (active)
GI50 (COLO 205): 15.4 nM (active)
GI50 (MDA-MB-231): < 10 nM (active)
GI50 (HOP-92): 19.9 nM (active)
GI50 (MDA-MB-435): < 10 nM (active)
GI50 (A549): < 10 nM (active)
GI50 (HCC 2998): 12.2 nM (active)
GI50 (SK-MEL-2): < 10 nM (active)
GI50 (OVCAR-8): < 10 nM (active)
GI50 (SF-539): 22.3 nM (active)
GI50 (ACHN): < 10 nM (active)
